Assay results published in US12264128B1, “Acid as an antioxidant compound” (KING FAISAL UNIVERSITY, priority 2023, dated 2025).

Assay: DPPH radical scavenging antioxidant test
Conditions: 517 nm; for Inhibition (radical scavenging inhibition): 0.2 mL DPPH (0.75 mM), compound 3 μM in ethanol, 30 min incubation in the dark
Description: The antioxidant properties of the 8-((3,4-dihydroxyphenyl)diazenyl)naphthalene-1,3-disulfonic acid were studied by adding 0.2 mL DPPH (0.75 mM)) to compound 8-((3,4-dihydroxyphenyl)diazenyl)naphthalene-1,3-disulfonic acid (III) (3 μM) in ethanol. After 30 min of incubation in the dark, the absorbance was read against a blank at 517 nm. Ascorbic acid (vitamin C) was used as standard antioxidants (positive control). A blank sample was prepared by 0.2 ml of DPPH in 3 ml ethanol. A negative control sample was run using ethanol instead of the sample. The radical scavenging inhibition was calculated using the following equation: […]
The antioxidant activity for the synthesized compound is listed in Table 1, using Vitamin C as a reference.

Row | Structure (SMILES) | Inhibition (radical scavenging inhibition) | antioxidant potential compared to vitamin C (in words) (DPPH in vitro test, vitamin C as positive control)
1 | O=S(=O)(O)c1cc(S(=O)(=O)O)c2c(/N=N/c3ccc(O)c(O)c3)cccc2c1 [Product III, 8-((3,4-dihydroxyphenyl)diazenyl)naphthalene-1,3-disulfonic acid] | 54% | high potential as an antioxidant compared to vitamin C
2 | O=C1O[C@H]([C@@H](O)CO)C(O)=C1O [vit c, Ascorbic acid, reference compound] | 74% | 
